Measured values: patent US20240123015A1, “COMPOSITION FOR STRENGTHENING, DEVELOPING, DIFFERENTIATING, OR REGENERATING MUSCLE, OR PREVENTING, AMELIORATING, OR TREATING MUSCLE LOSS OR MUSCLE FATIGUE COMPRISING SCHIZONEPETA TENUIFOLIA EXTRACT AS EFFECTIVE COMPONENT” (KOREA INSTITUTE OF ORIENTAL MEDICINE, priority 2021, published 2024)

Assays:
C2C12 cells = test: Viability recovery of muscle cells under H2O2 oxidative stress (CCK8); format: cell-based, mouse; conditions: H2O2 250 μM alone; compared to control group
Protocol: Mouse myoblast cell line (i.e., C2C12 cells) was purchased from ATCC (Manassas, VA, USA) and cultured at conditions of 37° C. and 5% CO2 in DMEM medium containing 10% fetal bovine serum. Once the cultured cells reached 80% confluency, the medium was replaced with other DMEM medium (Gibco) containing 2% horse serum, 100 units/ml of penicillin, and 100 μg/ml of streptomycin to induce cell differentiation. The cells were cultured for 5 days after replacing the medium to induce cell differentiation. The culture medium was replaced with fresh medium every 2 days during the differentiation process. To induce muscular atrophy, the cells were treated with H2O2 at a final concentration of 250 μM. Concurrently, the cells were treated with Schizonepeta tenuifolia extract obtained from Example 1 at a concentration of 100 μg/ml. After treating the cells with Schizonepeta tenuifolia extract and culturing them for 24 hours, the medium was replaced with fresh medium containing 10% CCK8 (Dojindo) solution. After incubating for 2 hours, the absorbance was measured at 450 nm to evaluate cell viability. Each sample was measured three times, and the mean value was calculated.

BALB/c mice [1] = test: Fatigue-related factors (LDH, AST, ALT) in blood serum; format: in vivo, mouse; conditions: dexamethasone 25 mg/kg
Protocol: The extract prepared as a dry powder was dissolved in physiological saline and used for the administration. After two weeks of oral administration of the test sample, the evaluation was made by Rotarod test and also in terms of a change in fatigue-related factors in the blood.
At the end of the 1-hour time point after the oral administration of each test material for 2 weeks, the Rotarod test was carried out, and blood samples were collected immediately from the animal heart. The collected blood was centrifuged at 3,000 rpm, 4° C. for 15 minutes to separate the blood serum, which was then stored at −70° C. until further analysis. Thereafter, concentrations of lactate dehydrogenase (LDH), aspartate aminotransferase (AST), and alanine aminotransferase (ALT) in the blood serum were measured by using a biochemical analyzer (AU480 chemistry analyzer, Beckman Coulter Inc., Brea, CA, USA).

BALB/c mice [2] = test: Rotarod test in dexamethasone-induced animal model of fatigue; format: in vivo, mouse; conditions: positive control 50 mg/kg, 2 weeks, 20 rpm
Protocol: A 6-week-old male BALB/c mice was purchased from Orient Bio Inc. (Seongnam, South Korea) and used them for the test. The test animals were acclimated for one week in a breeding environment with a temperature of 25±2° C., humidity of 50±5%, and a 12-hour light-dark cycle, while being provided with ad libitum access to a standard diet (AIN-76A diet) and water. After the acclimation period, the animals were used for the test. The animal test of the present invention was carried out after obtaining an approval of Korea Institute of Oriental Medicine Institutional Animal Care and Use Committee.
The acclimated mice were randomly assigned to different groups: the normal group (Normal), the group administered with dexamethasone group (25 mg/kg), the group administered with Schizonepeta tenuifolia extract (HG, 200 mg/kg), and the positive control group administered with oxymetholone (50 mg/kg). Each group consisted of 6 mice. […]
Mouse was orally administered for 2 weeks with each test material, and then placed on the rod of a Rotarod apparatus and rotated at a speed of 20 rpm. The time until the mouse fell off the rod was then measured. […] The mean value of the three measurements for each animal was taken as the test result value, and the mean and standard deviation were calculated for each group of the six animals.

SMILES: OO [H2O2]
- cell viability (C2C12 cells): statistically significant decrease in cell viability

SMILES: C[C@@H]1C[C@H]2[C@@H]3CCC4=CC(=O)C=C[C@]4(C)[C@@]3(F)[C@@H](O)C[C@]2(C)[C@@]1(O)C(=O)CO [dexamethasone]
- LDH level in blood serum (BALB/c mice [1]): elevated levels
- ALT level in blood serum (BALB/c mice [1]; compared to normal group): statistically significant increase
- AST level in blood serum (BALB/c mice [1]; compared to normal group): statistically significant increase

SMILES: C[C@]12C/C(=C/O)C(=O)C[C@@H]1CC[C@@H]1[C@@H]2CC[C@@]2(C)[C@H]1CC[C@]2(C)O [oxymetholone]
- hanging time on the Rotarod (BALB/c mice [2]): statistically significant increase in the time spent hanging on the Rotarod
